This is an account of results in patent publication US20070072897A1, “Phenylaminopropanol derivatives and methods of their use” (Wyeth, priority 2005, published 2007).

Structures can show the parent of a compound that is named as a salt.

One assay deals with T1, human hNET (Homo sapiens, UniProt P23975).
T1 construct: expressed in transfected cells; host or cells: MDCK (MDCK-Net6)
T1 sequence (P23975 whole entry): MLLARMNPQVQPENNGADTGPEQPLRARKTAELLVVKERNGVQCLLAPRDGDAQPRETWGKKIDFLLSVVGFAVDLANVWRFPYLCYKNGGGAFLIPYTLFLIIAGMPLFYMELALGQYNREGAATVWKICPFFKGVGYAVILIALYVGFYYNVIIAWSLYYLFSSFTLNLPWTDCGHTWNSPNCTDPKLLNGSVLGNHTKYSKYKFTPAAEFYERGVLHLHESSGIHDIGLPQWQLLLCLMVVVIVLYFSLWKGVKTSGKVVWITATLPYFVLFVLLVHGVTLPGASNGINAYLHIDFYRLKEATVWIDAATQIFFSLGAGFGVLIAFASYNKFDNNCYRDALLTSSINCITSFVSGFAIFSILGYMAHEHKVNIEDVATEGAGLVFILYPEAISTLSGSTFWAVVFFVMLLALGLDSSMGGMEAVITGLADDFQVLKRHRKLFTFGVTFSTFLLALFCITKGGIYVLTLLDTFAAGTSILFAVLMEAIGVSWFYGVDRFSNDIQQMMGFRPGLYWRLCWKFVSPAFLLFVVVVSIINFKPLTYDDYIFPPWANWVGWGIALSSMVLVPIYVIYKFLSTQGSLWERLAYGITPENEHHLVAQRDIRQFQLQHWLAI
Put plainly: Norepinephrine (NE) uptake assay in MDCK-Net6 cells. The format is cell-based. The settings on record: [3H]NE uptake, MDCK-Net6 cells stably transfected with hNET. As to the method:
Cells were plated at 300,000/T75 flask and cells were split twice weekly. […] Cells were plated at 250,000 cells/T75 flask and split twice weekly.
Norepinephrine (NE) Uptake Assay
On day 1, cells were plated at 3,000 cells/well in growth medium and maintained in a cell incubator (37° C., 5% CO2). On day 2, growth medium was replaced with 200 μl of assay buffer (25 mM HEPES; 120 mM NaCl; 5 mM KCl; 2.5 mM CaCl2; 1.2 mM MgSO4; 2 mg/ml glucose (pH 7.4, 37° C.)) containing 0.2 mg/ml ascorbic acid and 10 μM pargyline. Plates containing cells with 200 μl of assay buffer were equilibrated for 10 minutes at 37° C. prior to addition of compounds. A stock solution of desipramine was prepared in DMSO (10 mM) and delivered to triplicate wells containing cells for a final test concentration of 1 μM. Data from these wells were used to define non-specific NE uptake (minimum NE uptake). Test compounds were prepared in DMSO (10 mM) and diluted in assay buffer according to test range (1 to 10,000 nM). Twenty-five microliters of assay buffer (maximum NE uptake) or test compound were added directly to triplicate wells containing cells in 200 μl of assay buffer. The cells in assay buffer with test compounds were incubated for 20 minutes at 37° C. […] The reaction was terminated by decanting the supernatant from the plate. The plates containing cells were washed twice with 200 μl assay buffer (37° C.) to remove free radioligand. The plates were then inverted, left to dry for 2 minutes, then reinverted and air-dried for an additional 10 minutes. […] After cell lysis, 75 μl of scintillation cocktail was added to each well and the plates were sealed with film tape. The plates were returned to the shake table and vigorously shaken for a minimum of 10 minutes to ensure adequate partitioning of organic and aqueous solutions. The plates were counted in a Wallac Microbeta counter (PerkinElmer) to collect the raw cpm data.
For each experiment, a data stream of cpm values collected from the Wallac Microbeta counter was downloaded to a Microsoft Excel statistical application program. Calculations of EC50 values were made using the transformed-both-sides logistic dose response program written by Wyeth Biometrics Department.
The term EC50 denotes the concentration that produces a half-maximal response. Lower therefore signals greater potency. `CNC[C@@H](O)[C@H](c1cccc(F)c1)n1cc(-c2ccccc2OC(F)(F)F)c2ccccc21` [Example 34, (1S,2R)-1-(3-fluorophenyl)-3-(methylamino)-1-{3-[2-(trifluoromethoxy)phenyl]-1H-indol-1-yl}propan-2-ol hydrochloride] came in with an EC50 of 327 nM.

Compound `CNC[C@@H](O)[C@H](c1cccc(F)c1)n1cc(-c2ccccc2OC(C)C)c2ccccc21` [Example 35, (1S,2R)-1-(3-fluorophenyl)-3-(methylamino)-1-{3-[2-(isopropoxy)phenyl]-1H-indol-1-yl}propan-2-ol hydrochloride] had a 50% effective concentration (EC50) of 169 nM. Compared with the last compound, the EC50 is about 1.9-fold lower.

`CNC[C@@H](O)[C@H](c1cccc(F)c1)n1cc(-c2ccc(F)cc2)c2ccccc21` [Example 36, (1S,2R)-1-(3-fluorophenyl)-1-[3-(4-fluorophenyl)-1H-indol-1-yl]-3-(methylamino)propan-2-ol hydrochloride] showed an EC50 of 711 nM.

Turning to `CNC[C@@H](O)[C@H](c1cccc(F)c1)n1cc(-c2ccc(F)cc2F)c2ccccc21` [Example 38, (1S,2R)-1-[3-(2,4-difluorophenyl)-1H-indol-1-yl]-1-(3-fluorophenyl)-3-(methylamino)propan-2-ol hydrochloride], a half-maximal effect (EC50) was put at 135 nM. Against the preceding compound, the EC50 is about 5.3-fold lower.

Compound `CNC[C@@H](O)[C@H](c1cccc(F)c1)n1cc(-c2cc(F)ccc2F)c2ccccc21` [Example 39, (1S,2R)-1-[3-(2,5-difluorophenyl)-1H-indol-1-yl]-1-(3-fluorophenyl)-3-(methylamino)propan-2-ol hydrochloride] displayed an EC50 of 70 nM. Against the preceding compound, the EC50 is about 1.9-fold lower.

`CNC[C@@H](O)[C@H](c1cccc(F)c1)n1cc(-c2cccc(OC)c2OC)c2ccccc21` [Example 40, (1S,2R)-1-[3-(2,3-dimethoxyphenyl)-1H-indol-1-yl]-1-(3-fluorophenyl)-3-(methylamino)propan-2-ol hydrochloride] yielded an EC50 of 41 nM.

`CNC[C@@H](O)[C@H](c1cccc(F)c1)n1cc(-c2ccc(Cl)cc2Cl)c2ccccc21` [Example 41, (1S,2R)-1-[3-(2,4-dichlorophenyl)-1H-indol-1-yl]-1-(3-fluorophenyl)-3-(methylamino)propan-2-ol hydrochloride] gave an EC50 of 193 nM.

On to `CCOc1ccccc1-c1cn([C@@H](c2cccc(F)c2)[C@H](O)CNC)c2ccccc12` [Example 42, (1S,2R)-1-[3-(2-ethoxyphenyl)-1H-indol-1-yl]-1-(3-fluorophenyl)-3-(methylamino)propan-2-ol hydrochloride], for which the EC50 turned out to be 71 nM. Against the preceding compound, the EC50 is about 2.7-fold lower.

In the case of `CNC[C@@H](O)[C@H](c1cccc(F)c1)n1ccc2cc(OC)nc(Cl)c21` [Example 43, (1S,2R)-1-(7-chloro-5-methoxy-1H-pyrrolo[2,3-c]pyridin-1-yl)-1-(3-fluorophenyl)-3-(methylamino)propan-2-ol hydrochloride], the EC50 turned out to be 299 nM.

`CNC[C@@H](O)[C@H](c1ccccc1)n1ccc2cc(C)nc(Cl)c21` [Example 44, (1S,2R)-1-(7-chloro-5-methyl-1H-pyrrolo[2,3-c]pyridin-1-yl)-3-(methylamino)-1-phenylpropan-2-ol hydrochloride] gave an EC50 of 416 nM.

Compound `CNC[C@@H](O)[C@H](c1cccc(F)c1)n1ccc2ccnc(C)c21` [Example 50, (1S,2R)-1-(3-fluorophenyl)-3-(methylamino)-1-(7-methyl-1H-pyrrolo[2,3-c]pyridin-1-yl)propan-2-ol hydrochloride] had an EC50 of 521 nM.

As to `CCC1CN([C@@H](c2ccccc2)[C@H](O)CNC)c2ccccc21` (stereo partly drawn) [Example 59, (1S,2R)-1-(3-ethyl-2,3-dihydro-1H-indol-1-yl)-3-(methylamino)-1-phenylpropan-2-ol hydrochloride], the EC50 stood at 16 nM.

`CNC[C@@H](O)[C@H](c1ccccc1)N1CC(C(C)C)c2ccccc21` (stereo partly drawn) [Example 60, (1S,2R)-1-(3-isopropyl-2,3-dihydro-1H-indol-1-yl)-3-(methylamino)-1-phenylpropan-2-ol hydrochloride] came in with an EC50 of 67 nM.

For `CC1(C)CN([C@@H](c2cc(F)cc(F)c2)[C@H](O)CN)c2ccccc21` [Example 61, (1S,2R)-3-amino-1-(3,5-difluorophenyl)-1-(3,3-dimethyl-2,3-dihydro-1H-indol-1-yl)propan-2-ol hydrochloride], a half-maximal response (EC50) required 216 nM.

Compound `CNC[C@@H](O)[C@H](c1cc(F)cc(F)c1)N1C(=O)C(C)(C)c2cccc(F)c21` [Example 62, 1-[(1S,2R)-1-(3,5-difluorophenyl)-2-hydroxy-3-(methylamino)propyl]-7-fluoro-3,3-dimethyl-1,3-dihydro-2H-indol-2-one hydrochloride] returned an EC50 of 4 nM.

As for `CNC[C@@H](O)[C@H](c1cccc(F)c1)N1C(=O)C(C)(C)c2cc(F)cc(F)c21` [Example 63, 5,7-difluoro-1-[(1S,2R)-1-(3-fluorophenyl)-2-hydroxy-3-(methylamino)propyl]-3,3-dimethyl-1,3-dihydro-2H-indol-2-one hydrochloride], the half-maximal effective concentration (EC50) is 51 nM.

The compound `CNC[C@@H](O)[C@H](c1cc(F)cc(F)c1)N1C(=O)C(C)(C)c2ccccc21` [Example 64, 1-[(1S,2R)-1-(3,5-difluorophenyl)-2-hydroxy-3-(methylamino)propyl]-3,3-dimethyl-1,3-dihydro-2H-indol-2-one hydrochloride] returned an EC50 of 20 nM.

`CNC[C@@H](O)[C@H](c1ccccc1)n1ccc2cc(O)ccc21` [Example 65, 1-[(1S,2R)-2-hydroxy-3-(methylamino)-1-phenylpropyl]-1H-indol-5-ol hydrochloride] gave an EC50 of 55 nM. Against the preceding compound, the EC50 is about 2.8-fold higher.

For the compound `CNC[C@@H](O)[C@H](c1cccc(F)c1)n1ccc2cc(O)ccc21` [Example 66, 1-[(1S,2R)-1-(3-fluorophenyl)-2-hydroxy-3-(methylamino)propyl]-1H-indol-5-ol hydrochloride], the EC50 was 3 nM. This EC50 is about 18-fold lower than that of the compound before.

Compound `CNC[C@@H](O)[C@H](c1ccccc1)N1C(=O)C2(CCCCC2)c2cc(OCc3ccccc3)ccc21` [Example 67, 5′-(benzyloxy)-1′-[(1S,2R)-2-hydroxy-3-(methylamino)-1-phenylpropyl]spiro[cyclohexane-1,3′-indol]-2′(1′H)-one hydrochloride] displayed an EC50 of 839 nM.

In the case of `CNC[C@@H](O)[C@H](c1ccccc1)N1C(=O)C(C)(C)c2cc(OCc3ccccc3)ccc21` [Example 68, 5-benzyloxy-1-[(1S,2R)-2-hydroxy-3-(methylamino)-1-phenylpropyl]-3,3-dimethyl-1,3-dihydro-2H-indol-2-one hydrochloride], the EC50 was 240 nM.

Still in this assay, the particulars now being: at 1 μM; [3H]NE uptake, MDCK-Net6 cells; read-out: hNET Percentage inhibition at 1 μM.
For orientation: inhibition means the share of the control response that was lost under treatment. For `CNC[C@@H](O)[C@H](c1cccc(F)c1)n1cc(-c2ccccc2Oc2ccccc2)c2ccccc21` [Example 37, (1S,2R)-1-(3-fluorophenyl)-3-(methylamino)-1-[3-(2-phenoxyphenyl)-1H-indol-1-yl]propan-2-ol hydrochloride], the inhibition at 1 µM amounted to 26%.

As for `CNC[C@@H](O)[C@H](c1ccccc1)n1ccc2cc(OC)ncc21` [Example 45, (1S,2R)-1-(5-methoxy-1H-pyrrolo[2,3-c]pyridin-1-yl)-3-(methylamino)-1-phenylpropan-2-ol hydrochloride], the inhibition at 1 µM is 43%.

Take `CNC[C@@H](O)[C@H](c1cccc(F)c1)n1ccc2cc(OC)ncc21` [Example 46, (1S,2R)-1-(3-fluorophenyl)-1-(5-methoxy-1H-pyrrolo[2,3-c]pyridin-1-yl)-3-(methylamino)propan-2-ol hydrochloride]: the inhibition at 1 µM was found to be 46%.

`CNC[C@@H](O)[C@H](c1ccccc1)n1ccc2cc(C)ncc21` [Example 47, (1S,2R)-3-(methylamino)-1-(5-methyl-1H-pyrrolo[2.3-c]pyridin-1-yl)-1-phenylpropan-2-ol hydrochloride]: the inhibition at 1 µM turned out to be 35%.

As for `CNC[C@@H](O)[C@H](c1cccc(F)c1)n1ccc2cc(C)ncc21` [Example 48, (1S,2R)-1-(3-fluorophenyl)-3-(methylamino)-1-(5-methyl-1H-pyrrolo[2,3-c]pyridin-1-yl)propan-2-ol hydrochloride], the inhibition at 1 µM came out at 51%.

For the compound `CNC[C@@H](O)[C@H](c1ccccc1)n1ccc2ccnc(C)c21` [Example 49, (1S,2R)-3-(methylamino)-1-(7-methyl-1H-pyrrolo[2,3-c]pyridin-1-yl)-1-phenylpropan-2-ol hydrochloride], the inhibition at 1 µM was 51%.

In the case of `CNC[C@@H](O)[C@H](c1cccc(F)c1)N1CCN(Cc2ccccc2)c2ccccc21` [Example 53, (1S,2R)-1-(4-benzyl-3,4-dihydroquinoxalin-1(2H)-yl)-1-(3-fluorophenyl)-3-(methylamino)propan-2-ol hydrochloride], the inhibition at 1 µM amounted to 49%.
